From PMC10914734 (Signal Transduction and Targeted Therapy, 2024)
Like-named read-outs stand apart in the source and are kept apart here.

Test system: SARS-CoV-2 XBB 1.16 variant
Parameters: species or system K18-hACE2 mice
Conditions: mouse; for Decrease of lung viral load (viral RNA copies) compared to the vehicle group: in vivo

Row | Compound | Effect against SARS-CoV-2 XBB 1.16 variant in vivo (in words) | Decrease of lung viral load (viral RNA copies) compared to the vehicle group (10 mg/kg) [log10 units] | Decrease of lung viral load (viral RNA copies) compared to the vehicle group (20 mg/kg) [log10 units]
1 | O=C(NCc1ccccc1)C(=O)[C@H](C[C@@H]1CCCNC1=O)NC(=O)[C@H](Cc1ccc(F)cc1)NC(=O)c1cc2ccccc2o1 [14a, N-((S)-1-(((S)-4-(benzylamino)-3,4-dioxo-1-((S)-2-oxopiperidin-3-yl)butan-2-yl)amino)-3-(4-fluorophenyl)-1-oxopropan-2-yl)benzofuran-2-carboxamide] | potent effect | 2.0 | 2.6
2 | O=C(NCc1ccccc1)C(=O)[C@H](C[C@@H]1CCCNC1=O)NC(=O)[C@H](CC1CCCCC1)NC(=O)c1cc2ccccc2o1 [14b, N-((S)-1-(((S)-4-(benzylamino)-3,4-dioxo-1-((S)-2-oxopiperidin-3-yl)butan-2-yl)amino)-3-cyclohexyl-1-oxopropan-2-yl)benzofuran-2-carboxamide] | potent effect |  | 
